According to patent US7964598B2 (The J. David Gladstone Institutes, priority 1995, dated 2011):
Entries after “also recorded” stand apart in the source; their conditions may differ.

How the values were obtained:
B103 cells = experiment: Toxicity to B103 cells; format: cell-based, rat; conditions: at the micromole level
YFP-apoE4-CFP = biological target: T1, YFP-apoE4-CFP (Homo sapiens, UniProt P02649, C130R); experiment: Cell-based FRET assay, YFP-apoE4-CFP; conditions: 5-20 μM
T1 construct: vector signal peptide (pFLAG-CMV3) (N); FLAG (N); expressed in transfected cells
Excerpt: Xu et al. (2004) J. Biol. Chem. 279:25511-25516. FRET—the non-radioactive transfer of photon energy from an excited fluorophore (donor) to another fluorophore (acceptor)—occurs only when the donor and acceptor are in close proximity (<100 Å). Thus, this approach can be used to measure nanometer scale distances.
Xu et al. (2004) J. Biol. Chem. 279:25511-25516. The constructs are depicted schematically in FIG. 29.
Since the emission spectrum of CFP (460-520 nm) overlaps with the excitation spectrum of YFP (480-520 nm), FLEXstation (Molecular Devices) can be used to measure FRET in living cells expressing YFP-apoE3-CFP or YFP-apoE4-CFP in a high throughput manner. […] Thus, the ratio of FRET to CFP emission in cells expressing YFP-apoE4-CFP is much higher than that in those expressing YFP-apoE3-CFP (FIG. 31). […] Since the FLEXstation can read FRET in both cells and the culture media treated without or with various small molecules, this assay allows one to know whether a small molecule affects apoE4 domain interaction only in the medium (“medium FRET”) or also inside the cell (“intracellular FRET”). In addition, after measurement of the intracellular FRET, the cells can be incubated further with MTT to determine the cytotoxicity of the compound. Thus, the cell-based FRET assay can simultaneously provide three sets of data-intracellular FRET, medium FRET, and cytotoxicity.
Quantifying FRET in Transfected Neuro-2a Cells—Stably transfected Neuro-2a cells expressing YFP-apoE3-CFP or YFP-apoE4-CFP at similar levels were selected by fluorescence activated cell sorter (FACS). YFP and CFP images of transfected cells were acquired with the Meta Detector, and their fluorescence intensities were analyzed with the mounted computer. The FRET signal was calculated as the ratio of YFP to CFP fluorescence intensity under CFP excitation. For each YFP-apoE-CFP construct, the FRET signal was measured in at least 12 cells from different fields.
Quantifying FRET in the Culture Medium—Neuro-2a cells stably expressing YFP-apoE3-CFP or YFP-apoE4-CFP and wildtype cells were grown in T175 flasks to 90% confluence and incubated with serum-free minimum essential medium containing N2 supplement for 24 h. The conditioned medium (20 ml/flask) was concentrated about 20-fold with Centriplus-YM-10 concentrators (Amicon, Bedford, Mass.), dialyzed against PBS, illuminated at the CFP excitation wavelength (430 nm), and scanned for emission spectrum. The FRET signal was calculated as the ratio of emission at 525 nm (YFP) to that at 475 nm (CFP). Conditioned medium from cells expressing apoE3-CFP or apoE4-CFP was used to determine baseline fluorescence in the absence of FRET.

[1] = tested on: apoE4 enhancement of Aβ production; experiment: Aβ production assay, B103-APP cells incubated with apoE4; format: cell-based, rat
Description: Aβ production assay. Stable neuroblastoma B103 cell lines transfected with a wildtype hAPP cDNA construct (B 103-APP) were selected by growing them in Dulbecco's modified Eagle's medium (DMEM) containing 10% fetal calf serum (FBS) and 400 μg/ml G418. A cell line expressing APP at similar levels in mouse brains has been identified by RNase protection assay (RPA) and was used in the studies described below. To determine Aβ production, B103-APP cells were incubated with serum-free minimal essential medium (MEM) containing N2 supplements with or without apoE isoforms for 24 h at 37° C. After incubation, 50 μl of medium was collected and assayed for Aβ levels with an ELISA method. The cells were lysed, and cellular proteins were determined by the Lowry method. AP production was normalized to cellular protein.
Cell Culture. Rat neuroblastoma B103 cells stably expressing human wildtype APP (hAPP695wt) (Xu et al. ((1999) Proc. Natl. Acad. Sci. USA 96:7547-7552; Esposito, et al. (2004) J. Neurochem. 91:1260-1274) were generated in Dr. Lennart Mucke's laboratory at the Gladstone Institute of Neurological Disease and maintained in Dulbecco's modified Eagle's medium (DMEM) (GIBCO, Grand Island, N.Y.) containing 400 μg/ml G418, 10% fetal bovine serum, and 5% horse serum at 37° C. Twenty-four hours after plating into 48-well plates (1×10^5 cells per well), cells were washed twice with serum-free DMEM and cultured for another 24 h in DMEM containing 1% N-2 supplement (GIBCO) to induce differentiation. The cells were treated with either β-VLDL (25 μg/ml cholesterol), recombinant human apoE isoform-enriched β-VLDL (7.5 μg/ml apoE and 25 μg/ml cholesterol), or recombinant human apoE (7.5 μg/ml apoE) in fresh DMEM containing 1% N-2 supplement for an additional 24 h. In some experiments, RAP (25 nM or 1 μM) was added to the cells 1 h before apoE treatment.
Aβ Assay. Aβ secreted into the medium was detected with a sandwich enzyme-linked immunosorbent assay (ELISA), using mAb 266 as a capturing antibody and 3D6 as a detecting antibody, as described. Johnson-Wood et al. ((1997) Proc. Natl. Acad. Sci. USA 94:1550-1555). Aβ was quantified from a standard curve (Aβ42; Bachem, Torrance, Calif.) and normalized by total cellular protein.

Neuro-2a cells = experiment: Aβ-induced apoptosis (DNA fragmentation assay); format: cell-based, mouse
Description: DNA Fragmentation Assay—DNA fragmentation of apoptotic cells was determined with Cell Death Detection ELISA kits (Roche, Indianapolis, Ind.).
FIG. 38. […] Control cells were not treated with Aβ1-42. Apoptotic cell death was measured with a DNA fragmentation assay. Values are the mean±S.D. of three separate experiments.
FIGS. 39A and 39B. […] Lysosomal leakage was quantitated by assaying cytosolic 0-hexosaminidase activity. […] Conditioned media were prepared as described above. Apoptosis was quantitated by measuring DNA fragmentation.

T1 sequence (P02649 19-317 C130R): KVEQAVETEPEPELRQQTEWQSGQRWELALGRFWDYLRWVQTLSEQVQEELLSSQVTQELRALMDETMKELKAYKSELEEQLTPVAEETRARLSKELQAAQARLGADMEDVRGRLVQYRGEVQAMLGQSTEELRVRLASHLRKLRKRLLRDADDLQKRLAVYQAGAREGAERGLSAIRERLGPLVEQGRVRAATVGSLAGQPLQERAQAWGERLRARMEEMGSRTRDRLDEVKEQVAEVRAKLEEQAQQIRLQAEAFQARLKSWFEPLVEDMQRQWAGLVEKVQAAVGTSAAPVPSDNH

ratio of FRET to CFP emission in the cells expressing YFP-apoE4-CFP (YFP-apoE4-CFP; intracellular): decreased significantly | ratio of FRET to CFP emission in media of YFP-apoE4-CFP cells (YFP-apoE4-CFP; medium): decreased significantly
Compound: O=S(=O)([O-])c1ccc2c(c1)c(Nc1ccc(S(=O)(=O)O)cc1)cc1c2nc2ccccc2[n+]1-c1ccccc1 [GIND-25, azocarmine-G]
toxicity to B103 cells (B103 cells): no significant toxicity | apoE4 enhancement of Aβ production ([1]; FIG. 22): abolished completely | enhancement of Aβ production by apoE4 ([1]; compound 5 μM preincubated with apoE 7.5 μg/ml 30 min, then 24 h with cells, FIG. 27D): abolish; also recorded: decreased Aβ production induced by apoE4 to levels similar to those induced by apoE3 | apoptosis, cells with medium alone or medium containing apoE3 plus Aβ1-42 (Neuro-2a cells): no significant effect | apoE4 potentiation of Aβ-induced apoptosis (Neuro-2a cells; apoE4 conditioned medium, Aβ1-42): block; also recorded: abolish
